Data set [1] concerns Rhipicephalus sanguineus. The data set can be described thus: Rapid screening protocol for topical application on brown dog ticks (% mortality). The note with it: data from laboratory 2. As to the method:
d) Rapid Screening Protocol for Topical Application on Brown Dog Ticks (Rhipicephalus sanguineus)
The aim of the test was to determine the presence of significant acaricidal activity in sample compounds or formulations when applied topically on brown dog ticks. A tick was defined as dead if it gave no apparent response when touched lightly and observed for 1 minute. To assess the experimental compound for acaricidal activity, a single dose level was chosen based on known results from previous experiments with a commercially available active reference compound. Both permethrin and fipronil were employed as reference compounds. The insect species tested was the Brown Dog Tick (Rhipicephalus sanguineus). Mixed sex adult ticks were used for tests. The strain used was cultured by von Berky Veterinary Services, Woody Point, QLD, AU and supplied as unfed adult ticks (mixed sex). Ticks were maintained in controlled conditions (temp. 18°±2° C., humidity 75±5% RH).
Test compounds (formulations or active ingredients) were stored in a refrigerator (5±1° C.) unless otherwise specified. Temperature was maintained at 25±1° C. and the humidity was ambient. The screening dose chosen was higher than that known to kill 90% of insects (LD90) using the reference compound. In the case of topical application of active compounds on adult ticks, the reference compound was fipronil and the dose chosen was 10 μg of active per tick (=10 μg of fipronil/1 μl of acetone). Ticks were each treated on the abdomen with 1 μL of a single dose level of test sample in acetone; ten ticks were treated with solvent only (acetone) in each test. Tests were replicated 4 times (total of 40 ticks treated). Ticks were held in recovery containers maintained under appropriate rearing conditions for 24 hours. Mortality resulting from the treatments was recorded at 24 hours. Pooled 24 hour mortality data were converted to percentages.

Data set [2] has as its system Rhipicephalus sanguineus. The data set can be described thus: Dose response protocol for topical application on brown dog ticks (LD50). The note with it: 24 h mortality, probit analysis. As to the method:
e) Dose response protocol for topical application on brown dog ticks (Rhipicephalus sanguineus): The test determines the level of insecticidal activity of sample compounds or formulations when applied topically on brown dog ticks. Sample compounds were stored prior to use in a freezer (−5±1° C.), unless otherwise specified.
• Mortality: A tick is defined as dead after it gives no apparent response when touched lightly or gently breathed upon, while observed for 30 seconds. • LD50 (Lethal Dose 50): The dose of a topically applied treatment at which 50% of the dog ticks are killed. • Reference compound: To assess an experimental compound for significant acaricidal activity a single dose level is chosen, which is based upon known results from previous experiments using a commercially available active i.e., a reference compound. The reference compound selected is one in common use, and one that has a similar mode of action against the Brown Dog Tick (i.e., the test species), • Recovery container: A recovery container consists of a 500 ml round plastic container measuring 115 mm diameter and 70 mm height, with a tight fitting lid that has 10 small (˜1 mm) holes inserted for air exchange. A 90 mm diameter piece of filter paper was placed on the bottom of the container and moistened with 1 mL of distilled water.
Adult, mixed sex, Brown Dog Ticks (Rhipicephalus sanguineus) were reared as follows: (i) cultured, (ii) transferred unfed, to a testing laboratory, and (iii) then maintained under controlled conditions (i.e., temp. 18°±2° C., humidity 75±5% RH). The ticks used were selected for vigor prior to testing, i.e., capable of actively walking and responsive to being touched or gently breathed upon.
During the testing, the temperature was maintained at 25±1° C. and the humidity was ambient. Seven dose levels (concentrations) of sample compound, in the form of serial dilutions in acetone, were derived from a pilot study and covered a range that produced very low to very high mortality. Groups of ten ticks were treated topically (on the abdomen) with 1 μL of a single dose level of the sample compound. Each test was replicated four times, i.e., employing a total of 40 ticks per dose level of each sample compound. As a control, ten ticks were treated with solvent only (acetone) for each test. Following the treatment, the ticks were held in recovery containers maintained under appropriate rearing conditions for 24 hours. Mortality resulting from the treatments was recorded at 24 hours. […] Press, London (1971).]

Data set [3] deals with Ctenocephalides felis. An outline of the steps:
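Adult cat fleas (3–7 days post-emergence), 15 per flask in ≥4 replicates, exposed to a dried acetone residue at 1.26 μg/cm^2 on a Coatasil-treated glass flask base. Held at 25±1° C, 75±5% humidity; mortality (immobile or unable to right) scored at 8, 24 and/or 48 h.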

The test system of data set [4] is Ctenocephalides felis. As to the kind of experiment: Ctenocephalides felis adulticide assay: C. felis dose response (LC50). The source says:
c) Ctenocephalides felis Adulticide Assay: C. felis Dose Response
The purpose of this example was to determine the LC50 when cat fleas were contacted with a glass surface treated with sample compounds or formulations prepared as described above. […] The test species was the cat flea (Ctenocephalides felis). The strain used was obtained from external suppliers as pupae and held in the laboratory under testing conditions until the adults had emerged. Fifteen (15) fleas were used in a minimum of four replicates for each dose level (total of 60 fleas per dose level). The insects were selected to be in the adult life stage, aged between 3 and 7 days post emergence.
The compounds to be tested were dissolved in acetone just prior to testing. Samples of compounds were stored in a refrigerator (5±1° C.) unless otherwise specified. During the mortality testing, the temperature was maintained at 25±1° C. Humidity was maintained at 75±5%. The base (area=159 mm^2) of a 100 mL glass Erlenmeyer (conical) flask provided the treatment surface. Flasks were pretreated with Coatasil™ glass treatment to maximise bio-availability of test compounds by preventing them from binding to the glass surface.
The base of the 100 mL Erlenmeyer flask was treated with 0.5 mL of test sample in acetone and gently swirled. This volume was sufficient to cover the base of the flask. Flasks were left to dry for 24 hours before flea exposure. Adult cat fleas were lightly anaesthetised by cooling and then placed into a sorting chamber, which allowed fleas to revive and jump into the Erlenmeyer flasks. Fifteen (15) adult cat fleas were collected in each flask. The top of the flasks were then covered in Parafilm™ and small holes made to allow gas exchange. A 0.5 mL volume of acetone was applied to the base of an Erlenmeyer flask and the testing proceeded in the same manner described above. Cat fleas in the treatment containers were held under testing conditions for 24 hours. Mortality resulting from the treatments was recorded at 8 and 24 hours.

Experimental findings from patent US20070238700A1, “N-PHENYL-1,1,1-TRIFLUOROMETHANESULFONAMIDE HYDRAZONE DERIVATIVE COMPOUNDS AND THEIR USAGE IN CONTROLLING PARASITES” (priority 2006, published 2007) are described below.

Read-outs that look alike come from different tables or passages of the source.

Consider `CC(=NN(c1ccc(F)cc1)C(C)C)c1cc(Cl)ccc1NS(=O)(=O)C(F)(F)F` [Compound 48], for which the “R. sanguineus Mortality (%) 24 h” value in data set [1] came out at 80%. Besides, in data set [2], the “R. sanguineus LD50” value is 6.3 μg/tick. Moreover, in data set [3], the “C. felis Mortality (%) 8 h” value was 95% and the “C. felis Mortality (%) 24 h” value was 100%. Further, the “C. felis LC50” value in data set [4] worked out at 0.64 ppm.
As for `CC(=NN(C)c1ccccc1F)c1cc(Cl)ccc1NS(=O)(=O)C(F)(F)F` [Compound 49], the “R. sanguineus Mortality (%) 24 h” value in data set [1] is recorded as 100%. Also, the “R. sanguineus LD50” value in data set [2] amounted to 1.6 μg/tick. Besides, in data set [3], the “C. felis Mortality (%) 8 h” value amounted to 100% and the “C. felis Mortality (%) 24 h” value was 100%. Besides, the “C. felis LC50” value in data set [4] (data from laboratory 1) is 0.31 ppm.
Turning to `CC(=NN(C)c1cccc(Cl)c1)c1cc(Cl)ccc1NS(=O)(=O)C(F)(F)F` [Compound 51], the “R. sanguineus Mortality (%) 24 h” value in data set [1] is 100%. Also, the “R. sanguineus LD50” value in data set [2] is 2.6 μg/tick. Besides, in data set [3], the “C. felis Mortality (%) 8 h” value came to 100% and the “C. felis Mortality (%) 24 h” value is reported as 100%. In addition, the “C. felis LC50” value in data set [4] is given as 0.82 ppm.
As to `CCN(N=C(C)c1cc(Cl)ccc1NS(=O)(=O)C(F)(F)F)c1ccc(Br)cc1` [Compound 54], the “R. sanguineus Mortality (%) 24 h” value in data set [1] was determined as 95%. Moreover, the “R. sanguineus LD50” value in data set [2] is listed as 5.6 μg/tick. Further, in data set [3], the “C. felis Mortality (%) 8 h” value amounted to 95% and the “C. felis Mortality (%) 24 h” value is given as 100%. In addition, the “C. felis LC50” value in data set [4] is given as 1.6 ppm.
For the compound `CC(=NN1CC(=O)NC1=O)c1cc(Cl)ccc1NS(=O)(=O)C(F)(F)F` [Compound 55], the “R. sanguineus Mortality (%) 24 h” value in data set [1] turned out to be 100%. In addition, the “R. sanguineus LD50” value in data set [2] worked out at 1.7 μg/tick. For the same compound, in data set [3], the “C. felis Mortality (%) 8 h” value turned out to be 100% and the “C. felis Mortality (%) 24 h” value is on record as 100%. In addition, the “C. felis LC50” value in data set [4] (data from laboratory 1) was 2.5 ppm.
Regarding `CC(=NN(C)C(=O)c1ccc(Cl)cc1)c1cc(Cl)ccc1NS(=O)(=O)C(F)(F)F` [Compound 59], the “R. sanguineus Mortality (%) 24 h” value in data set [1] amounted to 100%. Further, the “R. sanguineus LD50” value in data set [2] came to 1.8 μg/tick. Besides, in data set [3], the “C. felis Mortality (%) 8 h” value came to 100% and the “C. felis Mortality (%) 24 h” value came out at 100%. Also, the “C. felis LC50” value in data set [4] was found to be 2.9 ppm.
For `CCC(=NNC(=O)c1ccc(Cl)cc1)c1cc(Cl)ccc1NS(=O)(=O)C(F)(F)F` [Compound 60], in data set [1], the “R. sanguineus Mortality (%) 24 h” value amounted to 75%. In addition, in data set [2], the “R. sanguineus LD50” value was found to be 7.1 μg/tick. Further, in data set [3], the “C. felis Mortality (%) 8 h” value was found to be 60% and the “C. felis Mortality (%) 24 h” value was found to be 100%. Further, in data set [4], the “C. felis LC50” value amounted to 4.1 ppm.
With `CC(=NN(C)C(=O)c1ccc(Cl)cc1Cl)c1cc(Cl)ccc1NS(=O)(=O)C(F)(F)F` [Compound 62], in data set [1], the “R. sanguineus Mortality (%) 24 h” value amounted to 100%. The “R. sanguineus LD50” value in data set [2] came to 1.6 μg/tick. Besides, in data set [3], the “C. felis Mortality (%) 8 h” value is reported as 100% and the “C. felis Mortality (%) 24 h” value is given as 100%. Moreover, the “C. felis LC50” value in data set [4] was 2.2 ppm.
`CCN(N=C(C)c1cc(Cl)ccc1NS(=O)(=O)C(F)(F)F)c1cc(Cl)cc(Cl)c1` [Compound 70]: the “R. sanguineus Mortality (%) 24 h” value in data set [1] came to 100%. Further, the “R. sanguineus LD50” value in data set [2] was determined as 4.1 μg/tick. In data set [3], the “C. felis Mortality (%) 8 h” value came to 95% and the “C. felis Mortality (%) 24 h” value came out at 100%. Also, the “C. felis LC50” value in data set [4] was determined as 1.8 ppm.
In the case of `CCN(N=C(C)c1cc(Cl)ccc1NS(=O)(=O)C(F)(F)F)c1ccc(Cl)c(Cl)c1` [Compound 71], the “R. sanguineus Mortality (%) 24 h” value in data set [1] stood at 98%. For the same compound, the “R. sanguineus LD50” value in data set [2] came to 4.2 μg/tick. In data set [3], the “C. felis Mortality (%) 8 h” value is reported as 94% and the “C. felis Mortality (%) 24 h” value is listed as 100%. Also, the “C. felis LC50” value in data set [4] is reported as 2.5 ppm.
Taken in the same sequence, the figures for `CCCN(N=C(C)c1cc(Cl)ccc1NS(=O)(=O)C(F)(F)F)c1cccc(F)c1` [Compound 72] were 100%, 3.1 μg/tick, 100%, 100% and 1.5 ppm.
As to `CCCN(N=C(C)c1cc(Cl)ccc1NS(=O)(=O)C(F)(F)F)c1ccc(C)cc1` [Compound 73], the “R. sanguineus Mortality (%) 24 h” value in data set [1] amounted to 88%. Also, the “R. sanguineus LD50” value in data set [2] was 5.3 μg/tick. In data set [3], the “C. felis Mortality (%) 8 h” value came to 96% and the “C. felis Mortality (%) 24 h” value turned out to be 100%. The “C. felis LC50” value in data set [4] worked out at 2.1 ppm.
Taken in the same sequence, the figures for `CC(=NN(C)c1cccc(F)c1)c1cc(Cl)ccc1NS(=O)(=O)C(F)(F)F` [Compound 74] were 100%, 2.0 μg/tick, 100%, 100% and 0.76 ppm.
The corresponding values for `CCN(N=C(C)c1cc(Cl)ccc1NS(=O)(=O)C(F)(F)F)c1cccc(F)c1` [Compound 76] are 98%, 2.1 μg/tick, 100%, 100% and 0.42 ppm.
Taken in the same sequence, the figures for `CCC(=NN(C)C(=O)c1ccc(Cl)cc1)c1cc(Cl)ccc1NS(=O)(=O)C(F)(F)F` [Compound 81] were 100%, 1.49 μg/tick, 100%, 100% and 2.2 ppm.
Regarding `CCC(=NN(C)C(=O)c1ccc(Cl)cc1Cl)c1cc(Cl)ccc1NS(=O)(=O)C(F)(F)F` [Compound 82], the “R. sanguineus Mortality (%) 24 h” value in data set [1] is 100%. Further, the “R. sanguineus LD50” value in data set [2] came out at 2.0 μg/tick. Also, in data set [3], the “C. felis Mortality (%) 8 h” value came out at 98% and the “C. felis Mortality (%) 24 h” value amounted to 100%. Moreover, in data set [4], the “C. felis LC50” value is 2.4 ppm.
In the case of `CC(=NN(C)c1ccc(Cl)c(Cl)c1)c1cc(Cl)ccc1NS(=O)(=O)C(F)(F)F` [Compound 96], in data set [1], the “R. sanguineus Mortality (%) 24 h” value is 78%. For the same compound, the “R. sanguineus LD50” value in data set [2] was 3.0 μg/tick. Also, in data set [3], the “C. felis Mortality (%) 8 h” value came to 19% and the “C. felis Mortality (%) 24 h” value is reported as 99%. Moreover, in data set [4], the “C. felis LC50” value is given as 2.0 ppm.
